# According to ChEMBL document CHEMBL1201862, “PubChem BioAssay data set” (2004):
# Activity calls are given as the source filed them.
# Legend:
# [1] = target: T1, Protein RecA (Mycobacterium tuberculosis, UniProt P9WHJ3); experiment: Fluorescence Cell-Free Homogeneous Dose Retest to Identify Inhibitors of RecA-Intein Splicing Activity. [Related pubchem assays (depositor defined):AID2097, AID2223, AID489010, AID492950]; assay type: functional
# T1 sequence (P9WHJ3 whole entry): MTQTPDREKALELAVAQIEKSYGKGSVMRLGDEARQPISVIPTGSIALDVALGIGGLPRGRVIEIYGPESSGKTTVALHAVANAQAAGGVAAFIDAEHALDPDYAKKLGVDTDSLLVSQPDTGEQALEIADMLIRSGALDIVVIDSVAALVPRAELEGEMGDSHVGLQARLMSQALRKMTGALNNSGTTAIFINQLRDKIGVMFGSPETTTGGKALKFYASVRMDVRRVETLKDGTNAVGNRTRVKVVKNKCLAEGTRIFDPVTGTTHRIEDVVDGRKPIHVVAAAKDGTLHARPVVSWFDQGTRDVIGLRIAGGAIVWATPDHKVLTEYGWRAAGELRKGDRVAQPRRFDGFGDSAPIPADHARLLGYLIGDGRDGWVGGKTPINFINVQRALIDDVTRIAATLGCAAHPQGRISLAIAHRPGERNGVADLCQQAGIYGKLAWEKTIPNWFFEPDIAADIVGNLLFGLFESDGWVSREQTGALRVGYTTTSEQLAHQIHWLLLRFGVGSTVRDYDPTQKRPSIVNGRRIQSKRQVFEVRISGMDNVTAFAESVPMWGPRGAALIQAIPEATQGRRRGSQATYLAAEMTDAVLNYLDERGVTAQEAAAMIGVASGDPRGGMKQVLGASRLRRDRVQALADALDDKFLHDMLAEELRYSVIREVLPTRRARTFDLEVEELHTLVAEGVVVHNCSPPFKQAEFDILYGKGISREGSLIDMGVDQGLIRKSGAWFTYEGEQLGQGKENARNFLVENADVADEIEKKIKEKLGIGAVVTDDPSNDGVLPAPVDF
# [2] = target: T2, Replicative DNA helicase DnaB (Mycobacterium tuberculosis, UniProt P9WMR3); experiment: DnaB intein splicing inhibitors, dose response, biochemical, cell-free fluorescence (AID 449749); assay type: functional
# T2 sequence (P9WMR3 whole entry): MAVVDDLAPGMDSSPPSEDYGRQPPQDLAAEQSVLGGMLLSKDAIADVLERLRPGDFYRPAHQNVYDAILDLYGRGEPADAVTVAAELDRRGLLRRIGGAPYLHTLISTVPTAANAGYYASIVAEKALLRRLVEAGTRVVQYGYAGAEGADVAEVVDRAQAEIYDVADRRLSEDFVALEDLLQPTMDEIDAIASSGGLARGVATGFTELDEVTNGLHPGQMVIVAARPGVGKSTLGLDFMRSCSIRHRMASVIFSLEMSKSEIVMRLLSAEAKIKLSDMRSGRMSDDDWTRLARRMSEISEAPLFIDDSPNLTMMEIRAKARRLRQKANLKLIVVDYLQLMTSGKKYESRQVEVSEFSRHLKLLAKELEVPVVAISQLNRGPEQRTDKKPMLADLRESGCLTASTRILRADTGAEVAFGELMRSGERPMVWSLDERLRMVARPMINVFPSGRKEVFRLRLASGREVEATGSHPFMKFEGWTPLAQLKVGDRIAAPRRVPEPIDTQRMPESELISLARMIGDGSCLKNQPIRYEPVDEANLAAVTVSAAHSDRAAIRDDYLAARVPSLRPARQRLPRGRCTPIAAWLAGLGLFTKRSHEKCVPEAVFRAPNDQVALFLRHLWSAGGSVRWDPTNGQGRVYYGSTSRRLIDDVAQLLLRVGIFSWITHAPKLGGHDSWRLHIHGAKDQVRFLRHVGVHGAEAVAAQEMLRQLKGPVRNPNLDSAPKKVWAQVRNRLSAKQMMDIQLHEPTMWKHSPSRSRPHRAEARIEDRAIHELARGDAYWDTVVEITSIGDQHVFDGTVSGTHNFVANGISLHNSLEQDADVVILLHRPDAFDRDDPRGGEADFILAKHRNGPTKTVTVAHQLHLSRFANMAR
# [3] = target: T3, Corticotropin-releasing factor receptor 2/Corticotropin-releasing factor-binding protein (Homo sapiens, UniProt P24387+Q13324); experiment: activators of CRF receptor 2 with binding protein – uHTS hits, confirmation (AID 602473); assay type: functional; settings: read-out: EC50_Mean
# T3 sequence (Q13324 whole entry): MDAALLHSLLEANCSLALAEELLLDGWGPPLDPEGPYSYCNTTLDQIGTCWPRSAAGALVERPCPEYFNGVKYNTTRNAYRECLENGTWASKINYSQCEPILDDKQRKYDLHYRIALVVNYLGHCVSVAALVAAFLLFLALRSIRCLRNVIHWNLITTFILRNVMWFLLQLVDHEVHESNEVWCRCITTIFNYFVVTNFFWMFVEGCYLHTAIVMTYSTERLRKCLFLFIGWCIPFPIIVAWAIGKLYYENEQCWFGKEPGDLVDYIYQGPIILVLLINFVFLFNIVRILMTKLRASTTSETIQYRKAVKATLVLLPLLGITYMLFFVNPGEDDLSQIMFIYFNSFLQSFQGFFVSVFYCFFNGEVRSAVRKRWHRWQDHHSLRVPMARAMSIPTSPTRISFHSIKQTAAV
# T3 sequence (P24387 whole entry): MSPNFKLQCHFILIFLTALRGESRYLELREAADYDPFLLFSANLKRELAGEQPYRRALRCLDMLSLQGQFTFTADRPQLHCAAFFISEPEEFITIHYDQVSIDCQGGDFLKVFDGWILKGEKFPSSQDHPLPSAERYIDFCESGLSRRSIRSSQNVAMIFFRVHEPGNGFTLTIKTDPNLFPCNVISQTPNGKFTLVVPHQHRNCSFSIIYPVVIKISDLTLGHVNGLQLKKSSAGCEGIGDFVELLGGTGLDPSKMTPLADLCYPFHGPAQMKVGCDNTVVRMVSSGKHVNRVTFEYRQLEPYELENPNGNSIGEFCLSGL
# [4] = target: T3, Corticotropin-releasing factor receptor 2/Corticotropin-releasing factor-binding protein; experiment: Dose Response confirmation of uHTS hits for small molecule antagonists of the CRF-binding protein and CRF-R2 receptor complex.; assay type: functional; settings: read-out: IC50_Mean
# [5] = target: T4, Rac GTPase-activating protein 1 (Homo sapiens, UniProt Q9H0H5); experiment: MgcRacGAP GTPase-activating activity inhibitors, confirmation, biochemical, ADP Hunter fluorescence, primary and confirmatory (AID 624330); assay type: functional
# T4 sequence (Q9H0H5 whole entry): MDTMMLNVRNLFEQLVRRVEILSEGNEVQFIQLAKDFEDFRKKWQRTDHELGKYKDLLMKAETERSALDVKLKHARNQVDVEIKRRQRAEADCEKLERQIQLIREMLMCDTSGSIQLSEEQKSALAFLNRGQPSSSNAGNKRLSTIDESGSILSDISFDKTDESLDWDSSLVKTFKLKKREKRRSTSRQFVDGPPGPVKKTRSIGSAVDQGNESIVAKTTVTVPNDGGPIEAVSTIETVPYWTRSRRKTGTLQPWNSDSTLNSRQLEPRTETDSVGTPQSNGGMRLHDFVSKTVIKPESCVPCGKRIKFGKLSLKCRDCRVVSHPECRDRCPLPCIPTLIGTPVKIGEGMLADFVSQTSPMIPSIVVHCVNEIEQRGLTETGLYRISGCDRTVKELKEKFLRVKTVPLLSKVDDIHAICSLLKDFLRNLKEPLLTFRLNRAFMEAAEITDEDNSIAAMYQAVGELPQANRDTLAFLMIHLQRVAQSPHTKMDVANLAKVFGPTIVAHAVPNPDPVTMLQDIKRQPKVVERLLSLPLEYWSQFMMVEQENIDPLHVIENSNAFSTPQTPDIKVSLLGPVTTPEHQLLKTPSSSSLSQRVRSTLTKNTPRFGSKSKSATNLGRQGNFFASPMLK
# [6] = P. falciparum Dd2 growth inhibitors, dose response, SYBR Green, cherry-picked samples (AID 1159567); assay type: functional, cell-based
# [7] = cells; assay type: functional
# [8] = tested on: Streptococcus; experiment: Group A Streptococcus viability loss, dose response, counter-screen for streptokinase expression inhibitor project, luminescence, BacTiterGlo (AID 1915); assay type: functional, organism-based;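 also: potency for reduction of bacterial viability or growth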
# [9] = tested on: Streptococcus sp. 'group A'; experiment: growth inhibition of control SK(-) GAS strain, dose response, counter-screen for streptokinase expression inhibitor project, luminescence, kanamycin, BacTiterGlo, confirmation (AID 1900); assay type: functional, organism-based
# [10] = target: T5, Streptokinase A (Streptococcus pyogenes serotype M1, UniProt P10520); experiment: S. pyogenes streptokinase expression inhibitors, potency, dose response, plasminogen activation absorbance, OD405 (AID 1914); assay type: functional, Streptococcus pyogenes M1 GAS;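 also: secreted streptokinase activity via plasminogen activation per viability signal from cell pellet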
# T5 sequence (P10520 whole entry): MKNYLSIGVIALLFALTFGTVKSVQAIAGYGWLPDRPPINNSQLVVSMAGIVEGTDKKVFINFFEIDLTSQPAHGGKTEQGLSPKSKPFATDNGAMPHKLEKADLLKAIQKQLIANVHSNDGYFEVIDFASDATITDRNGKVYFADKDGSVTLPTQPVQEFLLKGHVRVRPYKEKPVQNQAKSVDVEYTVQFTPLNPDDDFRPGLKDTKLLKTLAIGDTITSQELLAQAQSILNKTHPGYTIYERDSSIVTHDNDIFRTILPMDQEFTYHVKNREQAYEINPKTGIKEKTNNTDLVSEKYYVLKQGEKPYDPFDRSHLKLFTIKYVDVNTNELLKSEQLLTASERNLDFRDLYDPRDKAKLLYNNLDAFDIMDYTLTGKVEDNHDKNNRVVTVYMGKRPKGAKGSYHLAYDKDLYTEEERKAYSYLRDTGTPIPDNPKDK
# [11] = NIH-3T3 fibroblast cytotoxicity, dose response, cytotoxicity control, cell-based, fluorescence, Alamar Blue, secondary assay (AID 2327); assay type: functional;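 also: NIH-3T3 mouse fibroblasts cultured with fluconazole at 8 µg/mL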
smiles,measurement,setting,value
O=C(Oc1ccc(N2C(=O)C3C4CCC(C4)C3C2=O)cc1)c1ccco1 (centres undefined),EC50,[1],13 µM (active)
same,AC50,[2],28.2 µM (active)
CC(=O)N1CCOc2cc(S(=O)(=O)N3CCN(c4ccccc4)CC3)c(Cl)cc21,EC50,[3],> 53 µM (inactive)
same,IC50,[4],> 47.1 µM (inactive)
Cc1ccccc1OCCN1CCCC1,IC50,[5],176 µM (active)
COc1cc(OC)c(OC)cc1CN1CCN(Cc2ccc(SC)cc2)CC1,IC50,[5],66.9 µM (active)
C[C@H](CO)N1C[C@H](C)[C@H](CN(C)CC2CC2)Oc2cc(-c3cccc(C#N)c3)ccc2S1(=O)=O,AC50,[6],3.61 µM (active)
CN(C)c1ccc(NC(=O)CN2C(=O)c3ccccc3C2=O)cc1,IC50,[5],73.7 µM (active)
CCc1cc(/C(Cc2ccccn2)=N\O)c(O)cc1O,IC50,[5],31.6 µM (active)
CCOC(=O)c1sc(NC(=O)CN(CC(C)C)CC(C)C)c(C(=O)OCC)c1C,EC50,[3],> 53 µM (inactive)
same,IC50,[4],> 47.1 µM (inactive)
CSc1ccc(CCNC(=O)c2ccc(C[S+]([O-])Cc3ccc(Cl)cc3)o2)cc1 (centres undefined),EC50,[3],> 53 µM (inactive)
same,IC50,[4],> 47.1 µM (inactive)
Cc1ccc(NC(=O)COCC(=O)Nc2ccc(C)cc2)cc1,IC50,[7],22.8 µM (active)
CN(CC(=O)Nc1ccc2c(c1)OCCO2)CC(=O)Nc1ccc(F)c(F)c1F,EC50,[3],> 53 µM (inactive)
same,IC50,[4],> 47.1 µM (inactive)
COc1ccc(NC(=O)C(=O)NNC(=O)C(C)Oc2ccc(Cl)cc2Cl)cc1 (centres undefined),EC50,[8],18.5 µM (active)
same,EC50,[9],4.84 µM (active)
same,IC50,[7],6.02 µM (active)
same,EC50,[10],> 150 µM (not active)
COc1ccc(CNCC(=O)Nc2cc(OC)cc(OC)c2)cc1,IC50,[5],123 µM (active)
CCOC(=O)N/N=C/c1ccc(N(CC)CC)cc1O,IC50,[5],78.5 µM (active)
Cc1ccc(NCCC(=O)c2cccs2)cc1,IC50,[7],10.5 µM (active)
COc1ccc(NC(=O)N(C)C[C@H]2Oc3cc(-c4ccc(C)cc4)ccc3S(=O)(=O)N([C@H](C)CO)C[C@@H]2C)cc1,AC50,[6],4.83 µM (active)
O=C(OCC(=O)N1CCCc2ccccc21)c1ccc(S(=O)(=O)C(F)F)cc1,IC50,[7],23.3 µM (active)
CC(C)CSc1nnc2[nH]c(=O)cc(N)n12,EC50,[3],> 53 µM (inactive)
same,IC50,[4],> 47.1 µM (inactive)
COc1ccc(C#Cc2ccc([C@H]3[C@H]4CN(C(=O)c5ccc(F)cc5)CC(=O)N4[C@H]3CO)cc2)cc1,AC50,[6],6.95 µM (active)
N#C/C(=C\c1ccc(N2CCOCC2)o1)c1ccccc1,IC50,[5],47.1 µM (active)
COC(=O)c1ccc(N2CCN(CCNC(=O)Nc3ccc(OC)cc3)CC2)cc1,IC50,[7],22.5 µM (active)
CCCC#Cc1ccc2c(c1)O[C@H](CN(C)C(=O)c1ccccc1F)[C@@H](C)CN([C@H](C)CO)S2(=O)=O,AC50,[6],4.94 µM (active)
Cn1c(SCC(=O)N2CCCc3ccccc32)nnc1-c1ccccc1,EC50,[11],> 160 µM (inactive)
COc1cc2c(cc1OC)C(/C=C(\O)c1ccc(OC)c([N+](=O)[O-])c1)=NCC2,EC50,[3],> 53 µM (inactive)
same,IC50,[4],> 47.1 µM (inactive)
COc1ccc(-c2ccc(/C=N/NC(=O)Cc3nnc(N)s3)o2)cc1Cl,EC50,[3],> 53 µM (inactive)
same,IC50,[4],> 47.1 µM (inactive)
CCOc1cc(/C=C2\SC(N3CCCC(C)C3)=NC2=O)ccc1O (centres undefined),IC50,[5],26.9 µM (active)
Cc1ccc(C(C)C)c(OCC(=O)OCc2c(C)noc2C)c1,IC50,[7],5.76 µM (active)
CCOC(=O)Cn1c(=O)oc2cc(S(=O)(=O)NC(C)(C)CC)ccc21,EC50,[3],> 53 µM (inactive)
same,IC50,[4],> 47.1 µM (inactive)
C[C@H](CO)N1C[C@H](C)[C@@H](CN(C)C(=O)Nc2cccc3ccccc23)Oc2ccc(NC(=O)Nc3cccc4ccccc34)cc2CC1=O,AC50,[6],5.57 µM (active)
CSc1ccc(/C=C(/NC(=O)c2ccc(C)cc2)C(=O)Nc2cccc(F)c2)cc1,EC50,[3],> 53 µM (inactive)
same,IC50,[4],> 47.1 µM (inactive)
O=C(Nc1ccn(Cc2ccccc2)n1)c1ccc(F)cc1,IC50,[7],> 50 µM (active)
